Measurements taken from patent US20150329864A1, “DESIGN OF OLIGONUCLEOTIDE ANALOGS AS THERAPEUTIC AGENTS” (SPRING BANK PHARMACEUTICALS, INC., priority 2010, published 2015).

What was measured:
[1] = tested on: HBV WT; assay: HepG2.2.15 cell-based HBV assay, wild type; conditions: Hepatitis B virus
Procedure: Selected compounds were evaluated in in vitro cell-based HepG2.2.15 HBV assay.
Antiviral analysis. For the antiviral analyses, confluent cultures of 2.2.1.5 cells were maintained on 96-well flat-bottomed tissue culture plates in RPMI1640 medium with 2% fetal bovine serum. Cultures (6 per each test concentration on two replicate plates) were treated with 9 consecutive daily doses of the test compounds. Medium was changed daily with fresh test compounds. HBV nucleic acid and protein levels were measured 24 hours after the last treatment. Extracellular (virion) HBV DNA levels were assessed by quantitative blot hybridization. Intracellular HBV DNA levels were measured by quantitative Southern blot hybridization.
The uptake of neutral red dye was used to determine the relative level of toxicity 24 hours following the last treatment. The absorbance of internalized dye at […] (A510) was used for the semi-quantitative analysis. Values are presented as a percentage of the average A510 values (±standard deviations) in 9 separate cultures of untreated cells maintained on the 96-well plates seeded at the same time with the identical pool of stock cells used for the antiviral analyses and maintained in an identical manner. A total of 3 cultures were treated with each concentration of the test compound.

[2] = Cytotoxicity by neutral red dye uptake in HCV replicon cultures; type: cell-based; conditions: human, AVA5 HCV replicon cell line (sub-genomic CON1, genotype 1b); parallel plates, 3-day assay; read-out: CC50, neutral red dye uptake
Procedure: Antiviral activity against HCV was assessed in a 3-day assay (Okuse, et al., 2005; Antiviral. Res. 65:23; Korba, et al., 2008, Antiviral Res. 77:56) using the stably-expressing HCV replicon cell line, AVA5 (sub-genomic (CON1), genotype 1b) (Blight, et al., 2000; Science 290:1972) maintained as sub-confluent cultures on 96-well plates. Antiviral activity was determined by blot hybridization analysis of intracellular HCV RNA (normalized to the level of cellular B-actin RNA in each culture sample). Cytotoxicity was assessed by neutral red dye uptake in cultures maintained in parallel plates.
EC50, EC90, and CC50 values were calculated by linear regression analysis (MS EXCEL®, QuattroPro®) using data combined from all treated cultures Korba & Gerin, 1992, Antivir. Res. 19:55; Okuse, et al., 2005, Antivir. Res. 65:23). […]
Combination treatments are conducted as previously described. Briefly, two agents were mixed together at a pre-determined concentration ratio. […] Analysis of drug interactions in the combination studies was determined by the use of the CALCUSYN program (Biosoft, Inc., Cambridge, United Kingdom). […]

[3] = tested on: HCV replicon H/FL-Neo (genotype 1a (H77), full length construct); assay: Secondary anti-HCV assay, replicon H/FL-Neo; type: cell-based; conditions: Hepatitis C virus
From the text: This assay assesses activity against additional genotypes using the format described for the primary assay. Activity against the genotype 1b HCV was included for comparison. A replicon cell line containing H/FL-Neo (genotype 1a (H77), full length construct) (Blight, et al., 2003, J. Virol. 77:3181) was used.

[4] = tested on: human hepatitis B virus; assay: Anti-HBV activity in the HBV transgenic mouse model, oral administration; type: in vivo, transgenic mice; conditions: for Liver HBV DNA Southern blot (pg/μg mean ± sd): p.o.
Procedure: Compound 6k was evaluated for anti-HBV activity in the transgenic mouse model of HBV infection. Male transgenic mouse infected with HBV, with age ranging from 78 to 108 days were used. Compound 6k was initially evaluated at a single dose of 300 mg/kg, administered daily for 14 days by oral gavage. The compounds were administered in citric acid and adefovir dipivoxil was used as a positive control. A control group which received vehicle was used a negative control. Following the treatment, mice were sacrificed and liver tissue analyzed for HBV DNA using Southern blot analysis. The data was statistically evaluated using Kruskall-Wallis non-parametric ANOVA.
(§1) (a) Male and female transgenic mice (founder 1.3.32) were infected with human hepatitis B virus. Following infection, animals were orally administered Compound 6k, or a placebo of 0.05 M citric acid, pH 2.0 once daily for 14 days. Dosage was 300 mg/kg/d for Compound 6k. The positive control, ADV, was administered at 10 mg/kg/d.
as §1, with “Male” for “(a) Male”, “add,” for “acid,”, “Dosages were 100, 10.5 and 1” for “Dosage was 300”, “6K.” for “6k.”

[5] = tested on: NOD2; assay: IRF3 induction in HEK cells with or without transfected NOD2; type: cell-based
[6] = 300 mg/kg/d, oral, once daily 14 days

| SMILES | EC50 [1] | EC90 [1] | CC50 at 3 day [2] | EC50 [3] | EC90 [3] | Liver HBV DNA Southern blot (pg/μg mean ± sd) ([4]; 1 mg/kg/d, qd × 14 d) | Liver HBV DNA Southern blot (pg/μg mean ± sd) ([4]; 10 mg/kg/d, qd × 14 d (Table 2)) | Liver HBV DNA Southern blot (pg/μg mean ± sd) ([4]; 100 mg/kg/d, qd × 14 d) | reduction of liver HBV DNA compared to untreated control ([4]; 300 mg/kg daily for 14 days by oral gavage) | Liver HBV RNA (log transcripts ± sd) [4, 6] | QPCR Liver HBV DNA (pg/μg mean ± sd) [4, 6] | Southern blot Liver HBV DNA (pg/μg mean ± sd) ([4]; 300 mg/kg/d, oral, once daily 14 days (Table 1)) | Liver HBV DNA Southern blot (pg/μg mean ± sd) ([4]; 300 mg/kg/d, qd × 14 d (Table 2)) | EC50 when administered orally to a hepatitis B transgenic mouse model ([4]; oral) | induction of IRF3 ([5]; HEK cells transfected with NOD2) | induction of IRF3 ([5]; NOD2 deficient HEK cells) |
| --- | --- | --- | --- | --- | --- | --- | --- | --- | --- | --- | --- | --- | --- | --- | --- | --- |
| CO[C@H]1C(OP(=O)(OC[C@H]2O[C@@H](n3cnc4c(N)ncnc43)CC2O)SCOC(=O)OC(C)C)[C@@H](CO)O[C@H]1n1ccc(=O)[nH]c1=O (stereo partly shown) [Compound 6k] | 2.5 µM | 8.5 µM | > 100 µM | 1 µM | ~6 µM | 16.4 ± 14.7 (6) pg/μg | 3.4 ± 4.4 (7) pg/μg | 7.2 ± 8.9 (6) pg/μg | up to 2 log | 10.8 ± 0.4 log transcripts | 13.3 ± 12 pg/µg | 5.7 ± 3.2 pg/µg | 4.8 ± 4.4 (2) pg/μg | approximately 10 mg/kg | – | – |
| CO[C@H]1C(OP(=O)(S)OC[C@H]2O[C@@H](n3cnc4c(N)ncnc43)CC2O)[C@@H](CO)O[C@H]1n1ccc(=O)[nH]c1=O (stereo partly shown) [Compound 5, 3-dApsU2′-OMe] | – | – | – | – | – | – | – | – | – | – | – | – | – | – | cause induction of IRF3 | failed to induce IRF3 |
